Laboratory results from ChEMBL document CHEMBL3046457, “Chemical characterization of the aphid antifeedant extracts from Dittrichia viscosa and Ferula communis” (2012).

Assays:
Type in all cases: functional
Myzus persicae [1] = experiment: Insecticidal activity against Myzus persicae (green peach aphid) in compound treated leaf disk assessed as settled on leaf disk at 10 ug/cm'2 relative to control (reference value: 39 +/- 6 to 98 +/- 1%)
Myzus persicae [2] = experiment: Insecticidal activity against Myzus persicae (green peach aphid) in compound treated leaf disk assessed as settling inhibition on leaf disk at 10 ug/cm'2 relative to control
Myzus persicae [3] = experiment: Insecticidal activity against Myzus persicae (green peach aphid) in compound treated leaf disk assessed as settled on leaf disk at 100 ug/cm'2 relative to control (reference value: 39 +/- 6 to 98 +/- 1%)
Myzus persicae [4] = experiment: Insecticidal activity against Myzus persicae (green peach aphid) in compound treated leaf disk assessed as settling inhibition on leaf disk at 50 ug/cm'2 relative to control
Myzus persicae [5] = experiment: Insecticidal activity against Myzus persicae (green peach aphid) in compound treated leaf disk assessed as settled on leaf disk at 50 ug/cm'2 relative to control (reference value: 39 +/- 6 to 98 +/- 1%)
Myzus persicae [6] = experiment: Insecticidal activity against Myzus persicae (green peach aphid) in compound treated leaf disk assessed as settling inhibition on leaf disk at 100 ug/cm'2 relative to control
Myzus persicae [7] = experiment: Insecticidal activity against Myzus persicae (green peach aphid) in compound treated leaf disk assessed as settled on leaf disk

| SMILES | inhibition (INH) (Myzus persicae [1]) [%] | inhibition (INH) (Myzus persicae [2]) [%] | inhibition (INH) (Myzus persicae [3]) [%] | inhibition (INH) (Myzus persicae [4]) [%] | inhibition (INH) (Myzus persicae [5]) [%] | inhibition (INH) (Myzus persicae [6]) [%] | ED50 (Myzus persicae [7]) [microg/cm2] |
| --- | --- | --- | --- | --- | --- | --- | --- |
| CC(C)=CCC/C(C)=C/CC/C(C)=C/Cc1c(O)c2ccccc2oc1=O | 28 | 63 | 26 | 71 | 20 | 62 |  |
| C=C1C(=O)O[C@H]2CC(=C)[C@H]3CC[C@@](C)(O)[C@@H]3C[C@H]12 [INUVISCOLIDE] | 43 | 38 | 31 | 50 | 39 | 56 |  |
| C=C1C(=O)O[C@@H]2C[C@H](C)C(CCC(C)=O)=CC[C@H]12 [TOMENTOSIN] | 61 | 19 | 2 | 48 | 35 | 98 | 31.9 |
